The results in this text go back to US8927732B2, “Biotin stannane for HPLC-free radioiodination” (General Electric Company, priority 2012, dated 2015).

The structures appear in SMILES notation.

The assay has as its target streptavidin resin column (Streptomyces avidinii, UniProt P22629). In words: Purification with streptavidin resin column in the presence of additives (solubility enhancing agent study). The following applies: eluent PBS. The procedure:
To an Eppendorf vial were added 56.6 μg precursor 4 (56.6 μL, 1.0 mg/mL, EtOH), 5 μL AcOH, Na^125I (18.5 MBq or 500 μCi, pH 8˜11 in aqueous NaOH) and iodogen (50 μL, 0.2 mg/mL in EtOH), subsequently. The reaction mixture was allowed to sit at room temperature for 20 minutes, with occasional swirling. After quenching with 100 μL of Na2S2O3 (0.1 M aq.), the mixture was diluted with 100 μL of EtOH then added to the binding buffer tested as described below.
A streptavidin resin column was packed using 1.6 mL of resin slurry (0.8 mL of actual resin) as described previously and washed with the appropriate binding buffer (4.0 mL, 5 cv). An 80 μL aliquot of the above radiolabeling mixture was diluted with the appropriate binding buffer (920 μL) and mixed for 10 minutes before loading onto streptavidin column. After incubation for 20 minutes, radiolabeled product was eluted off the column with binding buffer (three 0.5 mL fractions collected). All fractions (including a forerun fraction collected while loading the reaction mixture onto column) were subjected to HPLC analysis before being combined.

Chain of streptavidin resin column (P22629 25-183): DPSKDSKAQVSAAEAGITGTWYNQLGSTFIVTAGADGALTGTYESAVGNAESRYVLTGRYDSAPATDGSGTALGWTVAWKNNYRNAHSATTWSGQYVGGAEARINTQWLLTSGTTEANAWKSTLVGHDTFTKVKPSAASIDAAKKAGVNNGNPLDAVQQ

`O=C(OCc1ccccc1)c1cccc([125I])c1` [Compound 125I-3IBABn]: the “Activity left on column” value is on record as 16% (10% HP-β-CD w/v), 13% (20% HP-β-CD w/v) and 7% (40% HP-β-CD w/v).
